# Results reported in patent US12421210B2, “Fused bicyclic heterocycles as therapeutic agents” (NEW YORK UNIVERSITY, priority 2018, dated 2025).
# Molecular target: human NAMPT enzyme (His-hNAMPT) (Homo sapiens (Human), UniProt P43490)
# Assay: NAMPT enzymatic inhibition assay (fluorescence, NADH product)
# Type: biochemical
# Settings: [BPS]; read-out: NAMPT IC50 (μM) [BPS]
# human NAMPT enzyme (His-hNAMPT), sequence (P43490 whole entry): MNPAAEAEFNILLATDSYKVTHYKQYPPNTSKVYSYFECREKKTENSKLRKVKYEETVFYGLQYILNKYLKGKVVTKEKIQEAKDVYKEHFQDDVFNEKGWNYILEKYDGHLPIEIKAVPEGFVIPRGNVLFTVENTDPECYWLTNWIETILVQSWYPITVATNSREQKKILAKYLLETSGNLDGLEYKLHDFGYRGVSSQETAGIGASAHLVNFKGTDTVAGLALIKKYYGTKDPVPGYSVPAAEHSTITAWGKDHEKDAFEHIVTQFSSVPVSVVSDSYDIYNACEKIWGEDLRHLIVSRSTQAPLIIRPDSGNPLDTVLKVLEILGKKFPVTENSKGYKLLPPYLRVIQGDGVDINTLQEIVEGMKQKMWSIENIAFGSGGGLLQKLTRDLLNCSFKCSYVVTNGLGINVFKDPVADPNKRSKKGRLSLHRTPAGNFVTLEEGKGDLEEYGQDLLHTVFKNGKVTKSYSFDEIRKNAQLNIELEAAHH
row,IC50,Compound
1,0.01 to 0.49 µM,"CC(C)(C)OC(=O)N1C[C@@H]2[C@H](C1)[C@H]2C(F)CNC(=O)/C=C/c1cccnc1 (stereo partly drawn) [Example 255, (1R,5S,6r)-tert-butyl 6-(1-fluoro-2-((E)-3-(pyridin-3-yl)acrylamido)ethyl)-3-azabicyclo[3.1.0]hexane-3-carboxylate]"
2,0.01 to 0.49 µM,"CC(C)(C)OC(=O)N1C[C@H]2C[C@@H](CNC(=O)N3Cc4ccncc4C3)C[C@H]2C1 [Example 267, tert-butyl (3aR,5r,6aS)-5-((2,3-dihydro-1H-pyrrolo[3,4-c]pyridine-2-carboxamido)methyl)hexahydrocyclopenta[c]pyrrole-2(1H)-carboxylate]"
3,0.5 to 0.99 µM,"CC(C)(C)OC(=O)N1C[C@H]2CC(CNC(=O)NCc3cccnc3)C[C@H]2C1 (some centres unmarked) [Example 268, tert-butyl 5-((3-(pyridin-3-ylmethyl)ureido)methyl)hexahydrocyclopenta[c]pyrrole-2(1H)-carboxylate]"
4,1 to 29 µM,"CC(C)(C)OC(=O)N1CCC2CC(CNC(=O)NCc3cccnc3)CC2C1 (centres unmarked) [Example 271, tert-butyl 6-((3-(pyridin-3-ylmethyl)ureido)methyl)hexahydro-1H-cyclopenta[c]pyridine-2(3H)-carboxylate]"
5,0.01 to 0.49 µM,"CC(C)(C)OC(=O)N1CCC2CC(CNC(=O)N3Cc4ccncc4C3)CC2C1 (centres unmarked) [Example 272, tert-butyl 6-((2,3-dihydro-1H-pyrrolo[3,4-c]pyridine-2-carboxamido)methyl)hexahydro-1H-cyclopenta[c]pyridine-2(3H)-carboxylate]"
6,1 to 29 µM,"CC(C)(C)OC(=O)N1C[C@H]2C[C@H](CNC(=O)N3Cc4ccncc4C3)C[C@H]2C1 [Example 273, (3aR,5s,6aS)-tert-butyl 5-((2,3-dihydro-1H-pyrrolo[3,4-c]pyridine-2-carboxamido)methyl)hexahydrocyclopenta[c]pyrrole-2(1H)-carboxylate]"
7,0.01 to 0.49 µM,"CC(C)(C)OC(=O)N1C[C@H]2C[C@@H](CCNC(=O)/C=C/c3cccnc3)C[C@H]2C1 [Example 274, (3aR,5r,6aS)-tert-butyl 5-(2-((E)-3-(pyridin-3 yl)acrylamido)ethyl)hexahydrocyclopenta[c]pyrrole-2(1H)-carboxylate]"
8,0.5 to 0.99 µM,"CC(C)(C)OC(=O)N1C[C@H]2C[C@@H](CCNC(=O)COc3cccnc3)C[C@H]2C1 [Example 275, (3aR,5r,6aS)-tert-butyl 5-(2-(2-(pyridin-3-yloxy)acetamido)ethyl)hexahydrocyclopenta[c]pyrrole-2(1H)-carboxylate]"
9,0.01 to 0.49 µM,"CC(C)(C)NC(=O)N1C[C@@H]2[C@@H](CCNC(=O)/C=C/c3ccc(N)nc3)[C@@H]2C1 [Example 293, (1R,5S,6s)-6-(2-((E)-3-(6-aminopyridin-3-yl)acrylamido)ethyl)-N-(tert-butyl)-3-azabicyclo[3.1.0]hexane-3-carboxamide]"

# Same assay, conditions: [HDB]; read-out: NAMPT IC50 (μM) [HDB]
row,Compound,IC50
1,"CC(C)(C)OC(=O)N1C[C@@H]2[C@H](CCNC(=O)/C=C/c3cccnc3)[C@@H]2C1 [Example 279, (1R,5S,6r)-tert-butyl 6-(2-((E)-3-(pyridin-3-yl)acrylamido)ethyl)-3-azabicyclo[3.1.0]hexane-3-carboxylate]",0.01 to 0.49 µM
2,"O=C(/C=C/c1cccnc1)NCC[C@H]1[C@H]2CN(Cc3ccccc3)C[C@@H]12 [Example 280, (E)-N-(2-((1R,5S,6r)-3-benzyl-3-azabicyclo[3.1.0]hexan-6-yl)ethyl)-3-(pyridin-3-yl)acrylamide]",0.01 to 0.49 µM
3,"O=C(/C=C/c1cccnc1)NCC[C@H]1[C@H]2CN(c3ccccc3)C[C@@H]12 [Example 281, (E)-N-(2-((1R,5S,6r)-3-phenyl-3-azabicyclo[3.1.0]hexan-6-yl)ethyl)-3-(pyridin-3-yl)acrylamide]",0.01 to 0.49 µM
4,"O=C(O)COc1ncc(F)c(N2C[C@@H]3[C@@H](CCNC(=O)/C=C/c4cccnc4)[C@@H]3C2)n1 [Example 282, 2-((5-fluoro-4-((1R,5S,6s)-6-(2-((E)-3-(pyridin-3-yl)acrylamido)ethyl)-3-azabicyclo[3.1.0]hexan-3-yl)pyrimidin-2-yl)oxy)acetic acid]",0.01 to 0.49 µM
5,"O=C(/C=C/c1cccnc1)NCC[C@@H]1[C@H]2CN(C(CO)c3ccccc3)C[C@@H]12 (stereo partly drawn) [Example 286, (E)-N-(2-((1R,5S,6s)-3-(2-hydroxy-1-phenylethyl)-3-azabicyclo[3.1.0]hexan-6-yl)ethyl)-3-(pyridin-3-yl)acrylamide]",0.01 to 0.49 µM
6,"CP(C)(=O)c1cccc(N2C[C@@H]3[C@@H](CCNC(=O)/C=C/c4cccnc4)[C@@H]3C2)c1 [Example 288, (E)-N-(2-((1R,5S,6s)-3-(3-(dimethylphosphoryl)phenyl)-3-azabicyclo[3.1.0]hexan-6-yl)ethyl)-3-(pyridin-3-yl)acrylamide]",0.01 to 0.49 µM
7,"O=C(/C=C/c1cccnc1)NCC[C@@]1(F)[C@@H]2CN(Cc3ccccc3)C[C@@H]21 [Example 289, (E)-N-(2-((1R,5S,6r)-3-benzyl-6-fluoro-3-azabicyclo[3.1.0]hexan-6-yl)ethyl)-3-(pyridin-3-yl)acrylamide]",0.01 to 0.49 µM
8,"Nc1ccc(/C=C/C(=O)NCC[C@@]2(F)[C@@H]3CN(c4ncccn4)C[C@@H]32)cn1 [Example 290, (E)-3-(6-aminopyridin-3-yl)-N-(2-((1R,5S,6r)-6-fluoro-3-(pyrimidin-2-yl)-3-azabicyclo[3.1.0]hexan-6-yl)ethyl)acrylamide]",0.01 to 0.49 µM
9,"CC(C)(C)OC(=O)N1C[C@@H]2[C@H](C1)[C@@]2(F)CCNC(=O)/C=C/c1cccnc1 [Example 291, (1R,5S,6r)-tert-butyl 6-fluoro-6-(2-((E)-3-(pyridin-3-yl)acrylamido)ethyl)-3-azabicyclo[3.1.0]hexane-3-carboxylate]",0.01 to 0.49 µM
10,"O=C(/C=C/c1cccnc1)NCC[C@@]1(F)[C@@H]2CN(c3nc(Cl)ncc3F)C[C@@H]21 [Example 292, (E)-N-(2-((1R,5S,6r)-3-(2-chloro-5-fluoropyrimidin-4-yl)-6-fluoro-3-azabicyclo[3.1.0]hexan-6-yl)ethyl)-3-(pyridin-3-yl)acrylamide]",0.01 to 0.49 µM
11,"O=C(/C=C/c1cccnc1)NCC[C@@H]1[C@H]2CN(Cc3ncccn3)C[C@@H]12 [Example 294, (E)-3-(Pyridin-3-yl)-N-(2-((1R,5S,6s)-3-(pyrimidin-2-ylmethyl)-3-azabicyclo[3.1.0]hexan-6-yl)ethyl)acrylamide]",0.01 to 0.49 µM
12,"O=C(/C=C/c1cccnc1)NCC[C@@H]1[C@H]2CN(CCc3ccccc3)C[C@@H]12 [Example 295, (E)-N-(2-((1R,5S,6s)-3-phenethyl-3-azabicyclo[3.1.0]hexan-6-yl)ethyl)-3-(pyridin-3-yl)acrylamide]",0.01 to 0.49 µM
13,"O=C(/C=C/c1cccnc1)NCC[C@@H]1[C@H]2CN(Cc3ccccc3Cl)C[C@@H]12 [Example 300, (E)-N-(2-((1R,5S,6s)-3-(2-chlorobenzyl)-3-azabicyclo[3.1.0]hexan-6-yl)ethyl)-3-(pyridin-3-yl)acrylamide]",0.01 to 0.49 µM

# Further lines, results first:
row,IC50,Compound
1,< 0.01 µM,"O=C(/C=C/c1cccnc1)NCC[C@@H]1[C@H]2CN(C(c3ccccc3)c3ccccc3)C[C@@H]12 [Example 276, (E)-N-(2-((1R,5S,6s)-3-benzhydryl-3-azabicyclo[3.1.0]hexan-6-yl)ethyl)-3-(pyridin-3-yl)acrylamide]"
2,< 0.01 µM,"O=C(/C=C/c1cccnc1)NCC[C@@H]1[C@H]2CN(c3nc(N4CCOCC4)ncc3F)C[C@@H]12 [Example 277, (E)-N-(2-((1R,5S,6s)-3-(5-fluoro-2-morpholinopyrimidin-4-yl)-3-azabicyclo[3.1.0]hexan-6-yl)ethyl)-3-(pyridin-3-yl)acrylamide]"
3,< 0.01 µM,"O=C(/C=C/c1cccnc1)NCC[C@@H]1[C@H]2CN(c3nc(OC4CCCC4)ncc3F)C[C@@H]12 [Example 278, (E)-N-(2-((1R,5S,6s)-3-(2-(cyclopentyloxy)-5-fluoropyrimidin-4-yl)-3-azabicyclo[3.1.0]hexan-6-yl)ethyl)-3-(pyridin-3-yl)acrylamide]"
4,< 0.01 µM,"NC(=O)C(c1ccccc1)N1C[C@@H]2[C@@H](CCNC(=O)/C=C/c3cccnc3)[C@@H]2C1 (stereo partly drawn) [Example 283, (E)-N-(2-((1R,5S,6s)-3-(2-amino-2-oxo-1-phenylethyl)-3-azabicyclo[3.1.0]hexan-6-yl)ethyl)-3-(pyridin-3-yl)acrylamide]"
5,< 0.01 µM,"NC(=O)COc1ncc(F)c(N2C[C@@H]3[C@@H](CCNC(=O)/C=C/c4cccnc4)[C@@H]3C2)n1 [Example 285, (E)-N-(2-((1R,5S,6s)-3-(2-(2-amino-2-oxoethoxy)-5-fluoropyrimidin-4-yl)-3-azabicyclo[3.1.0]hexan-6-yl)ethyl)-3-(pyridin-3-yl)acrylamide]"
6,< 0.01 µM,"O=C(/C=C/c1cccnc1)NCC[C@@H]1[C@H]2CN(c3nc(-c4ccccc4)ncc3F)C[C@@H]12 [Example 287, (E)-N-(2-((1R,5S,6s)-3-(5-fluoro-2-phenylpyrimidin-4-yl)-3-azabicyclo[3.1.0]hexan-6-yl)ethyl)-3-(pyridin-3-yl)acrylamide]"
7,< 0.01 µM,"O=C(/C=C/c1cccnc1)NCC[C@@H]1[C@H]2CN(C(c3ccccc3)C(F)(F)F)C[C@@H]12 (stereo partly drawn) [Example 296, (E)-3-(pyridin-3-yl)-N-(2-((1R,5S,6s)-3-(2,2,2-trifluoro-1-phenylethyl)-3-azabicyclo[3.1.0]hexan-6-yl)ethyl)acrylamide]"
8,< 0.01 µM,"COc1ncc(F)c(N2C[C@@H]3[C@@H](CCNC(=O)/C=C/c4cccnc4)[C@@H]3C2)n1 [Example 297, (E)-N-(2-((1R,5S,6s)-3-(5-fluoro-2-methoxypyrimidin-4-yl)-3-azabicyclo[3.1.0]hexan-6-yl)ethyl)-3-(pyridin-3-yl)acrylamide]"
9,< 0.01 µM,"O=C(/C=C/c1cccnc1)NCC[C@@H]1[C@H]2CN(Cc3cncnc3)C[C@@H]12 [Example 298, (E)-3-(pyridin-3-yl)-N-(2-((1R,5S,6s)-3-(pyrimidin-5-ylmethyl)-3-azabicyclo[3.1.0]hexan-6-yl)ethyl)acrylamide]"
10,< 0.01 µM,"O=C(/C=C/c1cccnc1)NCC[C@@H]1[C@H]2CN(c3ccnc(OC(F)F)c3)C[C@@H]12 [Example 299, (E)-N-(2-((1R,5S,6s)-3-(2-(difluoromethoxy)pyridin-4-yl)-3-azabicyclo[3.1.0]hexan-6-yl)ethyl)-3-(pyridin-3-yl)acrylamide]"
